Test results taken from patent US20080292584A1 (priority 2005, published 2008).
Several values for one entry are separate records, joined by “and”; a condition that tells them apart may be missing. Equal entries are not always repeated. Where two headings read alike, the source gives them in different places.

Tests used:
[1] = biological target: T1, CYP3A4 (Homo sapiens, UniProt P08684); experiment: Induction/inhibition of CYP3A4 activity in cryopreserved human hepatocytes (testosterone)
Source text: Hepatocytes from three human donors were obtained from a cryopreserved hepatocyte bank (In Vitro Technologies, Inc., USA). After thawing, viable hepatocytes were transferred to collagen-coated 48-well plates for attachment in plating medium (DMEM stock (Dulbecco's modified Eagle's medium, supplemented with bovine serum albumin, fructose, N-(2-hydroxyethyl)piperazine-N′-(2-ethanesulfonate) (HEPES), and sodium bicarbonate), supplemented with antibiotics, bovine serum, hydrocortisone, insulin and minimum essential medium (MEM) nonessential amino acids). After attachment to the collagen matrix, plating medium was replaced with sandwich medium (plating medium supplemented with VITROGEN) and incubated until use.
The supplemented KHB was replaced with 150 μL supplemented KHB containing the appropriate isoform-selective substrate and incubated for 4 hrs prior to termination by adding 150 μL ice-cold methanol, except for the CYP2C8 incubations which were terminated by adding 150 μL acetonitrile.
All substrates were dissolved in acetonitrile.
Replicate trials and controls were performed. […] Additionally, reference control samples were included to evaluate inducibility of CYP2B6, CYP2C9, and CYP2C19 in the test system.
Mean specific activity values with associated p-values≦0.05 were deemed to be statistically significant.
Target sequence in this assay (P08684 whole entry): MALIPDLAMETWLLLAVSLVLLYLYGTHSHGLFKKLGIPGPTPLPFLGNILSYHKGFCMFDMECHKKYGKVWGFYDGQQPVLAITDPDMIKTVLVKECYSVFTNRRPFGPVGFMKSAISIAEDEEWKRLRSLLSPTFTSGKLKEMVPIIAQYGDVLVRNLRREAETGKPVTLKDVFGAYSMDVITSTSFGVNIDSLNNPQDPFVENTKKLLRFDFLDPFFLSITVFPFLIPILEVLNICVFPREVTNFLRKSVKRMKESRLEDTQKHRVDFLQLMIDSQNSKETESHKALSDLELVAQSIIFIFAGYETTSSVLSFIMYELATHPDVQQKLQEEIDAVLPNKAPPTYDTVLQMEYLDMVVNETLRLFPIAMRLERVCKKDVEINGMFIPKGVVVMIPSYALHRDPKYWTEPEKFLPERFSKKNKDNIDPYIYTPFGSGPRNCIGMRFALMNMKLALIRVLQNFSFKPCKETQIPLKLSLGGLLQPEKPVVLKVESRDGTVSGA

[2] = biological target: T1, CYP3A4; experiment: Metabolism of metaxalone by expressed recombinant human CYP3A4 (Example 1); settings: 30 min;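 also: microsomes holding 10 pmol P450, reactions started by an NADPH regenerating system after 5 min preincubation, 0.5 mL final volume, background signal taken from matrix controls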
Target sequence in this assay (P08684 2-503 limits assumed): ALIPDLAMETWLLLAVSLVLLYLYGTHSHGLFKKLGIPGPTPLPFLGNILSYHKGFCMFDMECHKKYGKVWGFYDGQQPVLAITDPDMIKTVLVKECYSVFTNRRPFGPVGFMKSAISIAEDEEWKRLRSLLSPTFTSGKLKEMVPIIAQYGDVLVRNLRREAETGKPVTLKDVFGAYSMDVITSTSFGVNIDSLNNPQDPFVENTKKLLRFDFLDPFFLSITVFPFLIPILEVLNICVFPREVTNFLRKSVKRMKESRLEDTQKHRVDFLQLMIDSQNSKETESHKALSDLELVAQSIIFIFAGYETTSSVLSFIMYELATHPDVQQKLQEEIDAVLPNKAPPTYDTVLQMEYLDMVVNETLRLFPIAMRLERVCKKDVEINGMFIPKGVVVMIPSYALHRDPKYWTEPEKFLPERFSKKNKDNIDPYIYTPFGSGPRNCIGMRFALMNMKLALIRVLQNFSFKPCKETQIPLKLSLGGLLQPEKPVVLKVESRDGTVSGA
Description: Commercially available microsomes from baculovirus-infected insect cells containing singly-expressed recombinant wild-type (*1 allele) human CYP enzymes and cDNA-expressed human cytochrome p450 oxidoreductase [BD SUPERSOMES Enzymes; BD Biosciences Discovery Labware (Woburn, Mass.)] were used.
After a 5-minute pre-incubation, an NADPH regenerating system (NRS) was added to the incubation mixtures to initiate reactions, with a final incubation volume of 0.5 mL. Incubations were continued for 30 minutes, and then terminated, except for those for CYP2C19, which were incubated for 36 minutes prior to termination.
Matrix controls were performed to determine the background signal from the matrix components (microsomes (10 pmol p450), 01N Tris buffer, NRS, and 1% methanol). […] After a 5-minute pre-incubation, 2% sodium bicarbonate solution was added to the incubation mixtures. Incubation was for 30 minutes at a final volume of 0.5 mL. Matrix and metabolic negative controls were terminated by adding an equal volume of methanol. […] Analysis of samples was subsequent to storage at −70° C.

[3] = biological target: T1, CYP3A4; settings: for % Turnover Mean: both, human, microsomes, 1 h, pH 7.4
Target sequence in this assay (P08684 whole entry): as the sequence (P08684 whole entry) above
Description: (§4) Human liver microsomes pooled from 15 individuals (male and female) (Pool HMMC-PL020; CellzDirect, Inc., In Vitro Products and Services Division) were used in some experiments of this study.
(§5) % Turnover=100−{[TA(final)]/[mean of TA(0 min)]}×100,
(§6) % Inhibition of Turnover=100{1−([TA(0 min)]−[TA(final-inhibitor)])/([TA(0 min)]−[TA(final-no inhibitor)])}.
(§7) The inhibitors or vehicle control were incubated with the pooled human liver microsomes (1 mg/mL) and NADPH (1 mM) in 0.1 M phosphate buffer, pH 7.4. […] Incubations were conducted in triplicate and terminated by addition of organic solvent. Samples were extracted and analyzed by LC-MS/MS as described above.

[4] = biological target: T2, CYP2A6 (Homo sapiens, UniProt P11509); experiment: Inhibition of CYP2A6 activity in pooled human liver microsomes (coumarin 8 μM to 7-hydroxy coumarin); type: in vitro ADME
T2 sequence (P11509 1-494): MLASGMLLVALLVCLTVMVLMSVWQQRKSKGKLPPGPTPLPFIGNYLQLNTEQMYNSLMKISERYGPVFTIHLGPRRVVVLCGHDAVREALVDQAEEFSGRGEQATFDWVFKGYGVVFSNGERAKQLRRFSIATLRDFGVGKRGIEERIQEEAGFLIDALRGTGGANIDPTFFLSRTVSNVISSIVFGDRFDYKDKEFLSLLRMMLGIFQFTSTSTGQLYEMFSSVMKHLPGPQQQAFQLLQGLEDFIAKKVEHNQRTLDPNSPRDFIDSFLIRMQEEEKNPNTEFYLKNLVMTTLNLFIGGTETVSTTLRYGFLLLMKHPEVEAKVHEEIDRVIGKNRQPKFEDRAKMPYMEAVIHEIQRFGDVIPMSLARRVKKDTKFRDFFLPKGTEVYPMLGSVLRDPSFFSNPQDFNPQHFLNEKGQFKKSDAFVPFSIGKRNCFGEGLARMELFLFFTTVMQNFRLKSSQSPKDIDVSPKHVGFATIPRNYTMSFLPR
Description: (§1) All other incubations were for 30 minutes.
(§2) Four replicates were performed.
(§3) Two replicates were performed.

[5] = biological target: CYP2C19 (Homo sapiens, UniProt P33261); experiment: Chemical inhibition of metaxalone turnover in human liver microsomes, CYP2C19 inhibitor ticlopidine; settings: 1 mg/mL HLM, 60 min, with ticlopidine; for % Turnover / % inhibition of turnover / Conc.: single replicates
Chain of CYP2C19 (P33261 whole entry): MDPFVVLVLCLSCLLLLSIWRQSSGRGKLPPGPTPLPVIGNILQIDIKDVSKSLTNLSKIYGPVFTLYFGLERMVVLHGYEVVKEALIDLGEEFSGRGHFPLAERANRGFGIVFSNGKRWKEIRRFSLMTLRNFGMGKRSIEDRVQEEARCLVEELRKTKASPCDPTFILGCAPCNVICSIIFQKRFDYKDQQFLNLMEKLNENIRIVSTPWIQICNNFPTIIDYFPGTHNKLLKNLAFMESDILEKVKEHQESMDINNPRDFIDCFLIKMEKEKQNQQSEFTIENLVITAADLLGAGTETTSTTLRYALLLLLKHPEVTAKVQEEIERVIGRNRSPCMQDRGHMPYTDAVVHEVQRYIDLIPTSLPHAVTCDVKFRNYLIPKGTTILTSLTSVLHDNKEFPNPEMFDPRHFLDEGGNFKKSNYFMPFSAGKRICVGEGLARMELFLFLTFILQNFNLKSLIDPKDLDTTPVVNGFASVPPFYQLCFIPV
Description: as §4, §5, §6, §7

[6] = biological target: CYP2E1 (Homo sapiens, UniProt P05181); settings: both, microsomes, 1 h, 0.75 μM, pH 7.4
Chain of CYP2E1 (P05181 whole entry): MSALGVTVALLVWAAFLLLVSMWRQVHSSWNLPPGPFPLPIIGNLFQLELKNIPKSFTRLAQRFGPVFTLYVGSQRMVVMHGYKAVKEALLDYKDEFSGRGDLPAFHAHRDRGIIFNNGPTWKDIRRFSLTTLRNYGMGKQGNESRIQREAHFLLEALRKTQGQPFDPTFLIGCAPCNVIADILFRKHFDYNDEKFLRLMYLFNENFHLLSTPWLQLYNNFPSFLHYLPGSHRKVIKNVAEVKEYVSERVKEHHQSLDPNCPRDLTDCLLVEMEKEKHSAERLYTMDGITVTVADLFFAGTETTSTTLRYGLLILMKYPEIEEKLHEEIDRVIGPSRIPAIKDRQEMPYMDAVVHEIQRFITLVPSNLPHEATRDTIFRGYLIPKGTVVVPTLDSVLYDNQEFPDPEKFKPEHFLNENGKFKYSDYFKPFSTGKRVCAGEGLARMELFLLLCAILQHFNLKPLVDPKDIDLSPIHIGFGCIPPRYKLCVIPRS
Description: as §4, §5, §6, §7

[7] = test system: CYP2B6; experiment: Chemical inhibition of metaxalone turnover in human liver microsomes, CYP2B6 inhibitor thio-TEPA; settings: 1 mg/mL HLM, 60 min, with thio-TEPA; for % Turnover / % inhibition of turnover / Conc.: single replicates
Description: as §4, §5, §6, §7

[8] = biological target: T1, CYP3A4; settings: for Percent of VC / Specific Activity Mean ± SD: human, 10 min
Description: as §1, §2, §2, §3
Target sequence in this assay (P08684 whole entry): as the sequence (P08684 whole entry) above

[9] = 0.75 μM metaxalone, 1 mg/mL HLM, 60 min, with ketoconazole
[10] = 0.75 μM metaxalone, 1 mg/mL HLM, 60 min, with ketoconazole, single replicates
[11] = 7.5 μM metaxalone, 1 mg/mL HLM, 60 min, with ketoconazole
[12] = 7.5 μM metaxalone, 1 mg/mL HLM, 60 min, with ketoconazole, single replicates
[13] = 7.5 μM metaxalone, listed as Metaxalone

## Cc1cc(C)cc(OCC2CNC(=O)O2)c1 (stereo not shown) [metaxalone, 5-[(3,5-dimethylphenoxy)methyl]-2-oxazolidinone]
[1]
  Inducer/Inhibitor: +
[1]; Donor 2, Metaxalone 0.4 μM
  Specific Activity Mean ± SD: 1.20 ± 0.109 pmol/min/million cells
[1]; human
  6β-Hydroxytestosterone formation Adjusted Mean ± SD: 0.116 ± 0.00524 µM
  Specific Activity Mean ± SD: <0.905 ± 0.0213 pmol/min/million cells
[1]; human, 4 h, 4 μM
  6β-Hydroxytestosterone formation Adjusted Mean ± SD: <0.100 ± 0.000 µM
[1]; human, 48 h, 0.4 μM
  Specific Activity Mean ± SD: <0.893 ± 0.000 pmol/min/million cells
[1]; human, hepatocytes, 48 h
  effect on CYP3A4 activity: did not induce CYP3A4 activity
[1]; human, hepatocytes, 48 h, 40 μM
  induced CYP3A4 activity: about 21%
[2]; metaxalone 0.5 μM
  Metaxalone Present Adjusted Individual: 0.320 µM and 0.323 µM and 0.317 µM
  Metaxalone Present Adjusted Mean ± SD: 0.320 ± 0.00333 µM
  Metaxalone Present Raw: 0.1598 µM and 0.1616 µM and 0.1583 µM
  Percent of Metabolic Negative Control Individual: 101% and 102% and 99.6%
  Percent of Metabolic Negative Control Mean ± SD: 101 ± 1.05%
[2]; metaxalone 2.5 μM
  Metaxalone Present Adjusted Individual: 1.71 µM and 1.66 µM and 1.67 µM
  Metaxalone Present Adjusted Mean ± SD: 1.68 ± 0.0289 µM
  Metaxalone Present Raw: 0.8573 µM and 0.8292 µM and 0.8374 µM
  Percent of Metabolic Negative Control Individual: 99.8% and 96.5% and 97.5%
  Percent of Metabolic Negative Control Mean ± SD: 98.0 ± 1.68%
[2]; metaxalone 25 μM
  Percent of Metabolic Negative Control Individual: 98.1% and 97.1% and 99.3%
  Percent of Metabolic Negative Control Mean ± SD: 98.1 ± 1.10%
[3]; [9]
  % inhibition of turnover Mean: 126%
  Mean Conc.: 0.831 µM
[3]; [10]
  % inhibition of turnover: 132% and 116% and 130%
  Conc.: 0.844 µM and 0.807 µM and 0.842 µM
[3]; [11]
  % inhibition of turnover Mean: 130%
  Mean Conc.: 9.13 µM
[3]; [12]
  % Turnover: 0.28%
  % inhibition of turnover: 98.8% and 161% and 129%
  Conc.: 8.49 µM and 9.78 µM and 9.12 µM
[3]; 0.75 μM
  % Turnover Mean: −7.71%
[3]; 7.5 μM
  % Turnover Mean: −7.26%
[4]; 0.3-100 μM metaxalone
  inhibition of CYP activity at a statistically significant level: no tested concentration of metaxalone inhibited activity
[4]; CYP isozyme 2A6, summary of studies
  Inhibitor: 0
[4]; metaxalone 0.3 μM
  Percent of VC: 96.9%
  Specific Activity Individual: 430 pmol/min/mg protein and 398 pmol/min/mg protein and 410 pmol/min/mg protein
  Specific Activity Mean ± SD: 413 ± 16.0 pmol/min/mg protein
[4]; metaxalone 1 μM
  Percent of VC: 95.7%
  Specific Activity Individual: 399 pmol/min/mg protein and 409 pmol/min/mg protein and 414 pmol/min/mg protein
  Specific Activity Mean ± SD: 407 ± 7.36 pmol/min/mg protein
[4]; metaxalone 3 μM
  Percent of VC: 102%
  Specific Activity Individual: 420 pmol/min/mg protein and 453 pmol/min/mg protein and 435 pmol/min/mg protein
  Specific Activity Mean ± SD: 436 ± 16.1 pmol/min/mg protein
[4]; metaxalone 30 μM
  Percent of VC: 107%
  Specific Activity Individual: 433 pmol/min/mg protein and 461 pmol/min/mg protein and 471 pmol/min/mg protein
  Specific Activity Mean ± SD: 455 ± 19.7 pmol/min/mg protein
[4]; metaxalone 100 μM
  Percent of VC: 94.8%
  Specific Activity Individual: 395 pmol/min/mg protein and 393 pmol/min/mg protein and 423 pmol/min/mg protein
  Specific Activity Mean ± SD: 404 ± 16.6 pmol/min/mg protein
[5]; 0.75 μM metaxalone
  % Turnover Mean: 8.16%
  % inhibition of turnover Mean: 72.6%
  Mean Conc.: 0.709 µM
  % Turnover: 9.6% and 7.5% and 7.4%
  % inhibition of turnover: 67.9% and 74.7% and 75.2%
  Conc.: 0.698 µM and 0.714 µM and 0.715 µM
[5]; 7.5 μM metaxalone
  % Turnover Mean: 1.71%
  % inhibition of turnover Mean: 93.1%
  Mean Conc.: 8.37 µM
  % Turnover: 5.8% and 11.0% and −11.6%
  % inhibition of turnover: 76.5% and 55.5% and 147%
  Conc.: 8.02 µM and 7.58 µM and 9.50 µM
[6]
  % Turnover Mean: −3.87%
[7]; 0.75 μM metaxalone
  % Turnover Mean: 12.4%
  % inhibition of turnover Mean: 58.3%
  Mean Conc.: 0.676 µM
  % Turnover: 12.1% and 11.3% and 13.8%
  % inhibition of turnover: 59.3% and 62.0% and 53.7%
  Conc.: 0.678 µM and 0.684 µM and 0.665 µM
[7]; 7.5 μM metaxalone
  % Turnover Mean: 14.0%
  % inhibition of turnover Mean: 43.3%
  Mean Conc.: 7.33 µM
  % Turnover: 7.7%
[7]; [13]
  % Turnover: 14.8% and 19.4%
  % inhibition of turnover: 68.7% and 40.0% and 21.1%
  Conc.: 7.86 µM and 7.26 µM and 6.86 µM
[8]
  Inhibitor: +
[8]; 0.3 μM
  Percent of VC: 87.1%
  Specific Activity Mean ± SD: 517 ± 10.4 pmol/min/mg protein
[8]; 1 μM
  Percent of VC: 88.1%
  Specific Activity Mean ± SD: 523 ± 2.83 pmol/min/mg protein
[8]; 3 μM
  Percent of VC: 90.0%
  Specific Activity Mean ± SD: 534 ± 3.36 pmol/min/mg protein
[8]; 30 μM
  Percent of VC: 85.2%
  Specific Activity Mean ± SD: 506 ± 29.6 pmol/min/mg protein
[8]; 100 μM
  Percent of VC: 80.3%
  Specific Activity Mean ± SD: 477 ± 36.3 pmol/min/mg protein
